# Active and inactive are the calls of the source. The calls are words filed in the database; no cut-off is given here.
# Key:
# [1] = Selectivity index, ratio of CC50 for human HepG2 2.2.15 cells to IC50 for HBV infected in human HepG2 2.2.15 cells; format: toxicity, cell-based; conditions: read-out: Ratio CC50/IC50
# Hepatitis B virus [2] = assay: Antiviral activity against HBV infected in human HepG2 2.2.15 cells assessed as inhibition of viral DNA replication at 4 uM incubated for 6 days with every 2 days media replacement by RT-PCR analysis relative to control; format: functional; design: scale not given: the % may be the effect or the level left; conditions: time 6 day
# Hepatitis B virus [3] = assay: Antiviral activity against HBV infected in human HepG2 2.2.15 cells assessed as inhibition of viral DNA replication incubated for 6 days with every 2 days media replacement by RT-PCR analysis; format: functional, organism-based
# [4] = Cytotoxicity against human HepG2 2.2.15 cells assessed as reduction in cell viability incubated for 72 hrs by CCK8 assay; format: toxicity, cell-based
# [5] = biological target: Nuclear factor NF-kappa-B complex (Homo sapiens) (UniProt Q00653+P19838+Q04206); assay: Activation of NF-kappaB (unknown origin) transfected in HEK293T cells at 0.4 to 10 uM incubated for 48 hrs by Dual-luciferase reporter gene assay; format: cell-based; conditions: dose 0.4-10 µM
# Sequence of Nuclear factor NF-kappa-B complex (Homo sapiens) (P19838 whole entry, looked up): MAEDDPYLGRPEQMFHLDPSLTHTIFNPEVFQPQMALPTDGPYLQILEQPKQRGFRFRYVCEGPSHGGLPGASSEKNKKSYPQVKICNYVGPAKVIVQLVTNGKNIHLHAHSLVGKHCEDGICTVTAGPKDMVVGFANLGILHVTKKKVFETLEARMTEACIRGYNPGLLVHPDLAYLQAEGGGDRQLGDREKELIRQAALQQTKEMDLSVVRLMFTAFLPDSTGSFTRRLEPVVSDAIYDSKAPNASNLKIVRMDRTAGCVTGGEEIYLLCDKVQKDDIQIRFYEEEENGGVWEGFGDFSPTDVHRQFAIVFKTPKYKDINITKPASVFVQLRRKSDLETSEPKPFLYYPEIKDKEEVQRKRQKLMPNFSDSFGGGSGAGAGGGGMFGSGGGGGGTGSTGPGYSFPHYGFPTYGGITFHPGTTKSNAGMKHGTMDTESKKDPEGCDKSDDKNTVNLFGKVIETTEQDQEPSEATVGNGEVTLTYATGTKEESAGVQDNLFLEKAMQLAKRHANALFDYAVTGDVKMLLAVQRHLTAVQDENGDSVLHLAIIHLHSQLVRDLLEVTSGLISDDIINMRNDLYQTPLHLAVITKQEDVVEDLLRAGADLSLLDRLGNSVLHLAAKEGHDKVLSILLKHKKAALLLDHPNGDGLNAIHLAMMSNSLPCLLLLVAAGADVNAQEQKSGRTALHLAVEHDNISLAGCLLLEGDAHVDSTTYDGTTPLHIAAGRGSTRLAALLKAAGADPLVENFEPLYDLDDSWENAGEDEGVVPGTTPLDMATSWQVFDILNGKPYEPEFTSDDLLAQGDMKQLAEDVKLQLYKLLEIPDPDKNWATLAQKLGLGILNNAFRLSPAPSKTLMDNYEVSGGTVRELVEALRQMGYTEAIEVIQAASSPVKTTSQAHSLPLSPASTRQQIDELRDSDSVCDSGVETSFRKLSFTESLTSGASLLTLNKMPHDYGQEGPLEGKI
# Sequence of Nuclear factor NF-kappa-B complex (Homo sapiens) (Q00653 whole entry, looked up): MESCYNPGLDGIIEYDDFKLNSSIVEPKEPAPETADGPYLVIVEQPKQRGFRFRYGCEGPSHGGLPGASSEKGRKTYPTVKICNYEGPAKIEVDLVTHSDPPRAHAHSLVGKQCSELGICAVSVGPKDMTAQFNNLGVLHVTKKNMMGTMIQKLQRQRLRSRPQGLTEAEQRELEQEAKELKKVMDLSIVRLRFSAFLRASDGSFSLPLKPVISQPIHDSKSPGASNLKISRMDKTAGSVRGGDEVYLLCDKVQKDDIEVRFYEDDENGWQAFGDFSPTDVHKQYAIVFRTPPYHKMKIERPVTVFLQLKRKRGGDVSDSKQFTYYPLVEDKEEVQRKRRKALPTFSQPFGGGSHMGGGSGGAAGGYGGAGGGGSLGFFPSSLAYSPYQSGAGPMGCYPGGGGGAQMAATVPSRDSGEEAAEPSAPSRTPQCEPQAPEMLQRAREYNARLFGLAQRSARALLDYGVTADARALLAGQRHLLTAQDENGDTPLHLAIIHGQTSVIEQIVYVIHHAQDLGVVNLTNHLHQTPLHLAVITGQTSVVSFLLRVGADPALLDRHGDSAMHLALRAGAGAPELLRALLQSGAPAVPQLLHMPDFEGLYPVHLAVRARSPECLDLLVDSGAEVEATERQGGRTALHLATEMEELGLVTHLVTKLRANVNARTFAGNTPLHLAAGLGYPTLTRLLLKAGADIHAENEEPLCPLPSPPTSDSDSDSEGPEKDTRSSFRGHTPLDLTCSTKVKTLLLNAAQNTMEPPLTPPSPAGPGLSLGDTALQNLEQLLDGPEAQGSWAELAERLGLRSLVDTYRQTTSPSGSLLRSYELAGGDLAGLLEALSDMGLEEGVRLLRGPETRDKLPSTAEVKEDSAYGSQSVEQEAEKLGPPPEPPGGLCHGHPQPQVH
# Sequence of Nuclear factor NF-kappa-B complex (Homo sapiens) (Q04206 whole entry, looked up): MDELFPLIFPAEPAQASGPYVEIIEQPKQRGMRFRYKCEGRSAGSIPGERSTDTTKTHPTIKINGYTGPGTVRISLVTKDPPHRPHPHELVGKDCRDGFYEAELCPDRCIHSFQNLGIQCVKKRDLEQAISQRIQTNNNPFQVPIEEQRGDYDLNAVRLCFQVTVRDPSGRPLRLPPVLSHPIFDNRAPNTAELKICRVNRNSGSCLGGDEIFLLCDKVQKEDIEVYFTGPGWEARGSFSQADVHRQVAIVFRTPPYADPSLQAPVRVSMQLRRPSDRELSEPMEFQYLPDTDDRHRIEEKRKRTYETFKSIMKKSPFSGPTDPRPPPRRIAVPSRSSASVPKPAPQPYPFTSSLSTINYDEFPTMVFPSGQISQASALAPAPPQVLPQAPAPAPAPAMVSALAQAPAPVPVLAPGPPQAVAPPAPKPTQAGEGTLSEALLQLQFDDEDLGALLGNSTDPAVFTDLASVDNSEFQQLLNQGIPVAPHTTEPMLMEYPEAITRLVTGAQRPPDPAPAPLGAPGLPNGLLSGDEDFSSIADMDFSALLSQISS
# [6] = biological target: T1, Toll-like receptor 8 (Homo sapiens) (UniProt Q9NR97); assay: Agonist activity at TLR8 in human PBMC cells assessed as increase in TNF-alpha level incubated for 24 hrs by ELISA; format: cell-based; conditions: filed as agonist, dose 0.4-10 µM
# T1 sequence (whole entry): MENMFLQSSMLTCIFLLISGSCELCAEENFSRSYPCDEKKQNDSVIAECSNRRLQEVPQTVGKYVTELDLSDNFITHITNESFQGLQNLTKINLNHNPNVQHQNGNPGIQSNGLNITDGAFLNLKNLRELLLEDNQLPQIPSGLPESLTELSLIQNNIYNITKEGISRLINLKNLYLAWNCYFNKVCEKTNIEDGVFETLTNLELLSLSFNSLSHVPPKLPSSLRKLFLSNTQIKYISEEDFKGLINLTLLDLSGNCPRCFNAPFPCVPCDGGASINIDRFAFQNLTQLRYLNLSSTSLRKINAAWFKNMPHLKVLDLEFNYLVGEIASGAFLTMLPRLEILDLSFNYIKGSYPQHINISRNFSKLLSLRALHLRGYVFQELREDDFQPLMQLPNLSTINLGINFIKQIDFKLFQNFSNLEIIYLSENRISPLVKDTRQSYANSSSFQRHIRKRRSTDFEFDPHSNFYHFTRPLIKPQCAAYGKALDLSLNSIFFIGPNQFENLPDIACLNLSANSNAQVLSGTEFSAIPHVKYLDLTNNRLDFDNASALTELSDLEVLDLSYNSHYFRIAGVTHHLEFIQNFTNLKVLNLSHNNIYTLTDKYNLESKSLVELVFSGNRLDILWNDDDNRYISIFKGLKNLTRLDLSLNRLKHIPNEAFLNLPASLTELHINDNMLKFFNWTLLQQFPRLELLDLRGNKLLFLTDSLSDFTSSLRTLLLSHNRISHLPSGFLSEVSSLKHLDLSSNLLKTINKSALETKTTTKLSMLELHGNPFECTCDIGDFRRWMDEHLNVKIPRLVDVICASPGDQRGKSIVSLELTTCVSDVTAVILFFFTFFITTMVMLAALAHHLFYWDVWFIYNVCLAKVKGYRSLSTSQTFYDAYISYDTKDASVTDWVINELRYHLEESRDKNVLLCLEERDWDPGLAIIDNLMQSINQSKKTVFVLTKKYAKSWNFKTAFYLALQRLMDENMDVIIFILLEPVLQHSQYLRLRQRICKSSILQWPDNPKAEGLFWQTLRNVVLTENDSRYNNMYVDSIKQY
# [7] = biological target: T1, Toll-like receptor 8 (Homo sapiens); assay: Agonist activity at human TLR8 transfected in HEK293T cells co-transfected with NF-kappaB and renilla assessed as increase in TLR8-induced NF-kappaB activity at 0.4 to 10 uM incubated for 48 hrs by Dual-luciferase reporter gene assay; format: cell-based; conditions: filed as agonist, dose 0.4-10 µM
# [8] = Selectivity index, ratio of CC50 for human HepG2.A64 cells to IC50 for HBV infected in ETV/LAM-resistant human HepG2.A64 cells; format: toxicity; conditions: read-out: Ratio CC50/IC50
# [9] = biological target: T1, Toll-like receptor 8 (Homo sapiens); assay: Agonist activity at TLR8 in human PBMC cells assessed as increase in IL-12 level incubated for 24 hrs by ELISA; format: cell-based; conditions: filed as agonist, dose 0.4-10 µM
# Hepatitis B virus [10] = assay: Potency index, ratio of LAM IC50 to test compound IC50 for HBV infected in ETV/LAM-resistant human HepG2.A64 cells assessed as inhibition of viral DNA replication; format: functional
# [11] = Cytotoxicity against human HepG2.A64 cells assessed as reduction in cell viability incubated for 72 hrs by CCK8 assay; format: toxicity, cell-based
# Hepatitis B virus [12] = assay: Antiviral activity against HBV infected in ETV/LAM-resistant human HepG2.A64 cells assessed as inhibition of viral DNA replication incubated for 72 hrs by RT-PCR analysis; format: functional, organism-based; conditions: HepG2.A64, 72 h
SMILES,selectivity ratio [1],Activity (Hepatitis B virus [2]),IC50 (Hepatitis B virus [3]),CC50 at 72 h [4],other results
Cc1ccc(C(=O)NCCn2cnc3cc(-c4noc(CCC5CCCC5)n4)ccc32)cc1,> 13.1,54.11%,1.53 µM,> 20 µM,
O=C(NCCn1cnc2cc(-c3noc(CCC4CCCC4)n3)ccc21)c1cccc(C(F)(F)F)c1,> 37.7,84.47%,0.53 µM,> 20 µM,Activity [5]: inactive; Activity [6]: Dose-Dependent Effect; Activity [7]: Active; selectivity ratio [8]: > 45.5; Activity [9]: Dose-Dependent Effect; Ratio IC50 (Hepatitis B virus [10]): 150; CC50 at 72 h [11]: > 20 µM; IC50 (Hepatitis B virus [12]): 0.44 µM
O=C(NCCn1cnc2cc(-c3noc(CCC4CCCC4)n3)ccc21)c1cccc(F)c1,,45.92%,,> 20 µM,
O=C(NCCn1cnc2cc(-c3noc(CCC4CCCC4)n3)ccc21)c1ccccc1C(F)(F)F,> 5.14,46.02%,3.89 µM,> 20 µM,
O=C(NCCn1cnc2cc(-c3noc(CCC4CCCC4)n3)ccc21)c1ccccc1F,> 18.7,54.72%,1.07 µM,> 20 µM,
Cc1ccccc1C(=O)NCCn1cnc2cc(-c3noc(CCC4CCCC4)n3)ccc21,,6.59%,,> 20 µM,
O=C(NCCn1cnc2cc(-c3noc(CCC4CCCC4)n3)ccc21)c1ccc(Br)cc1,,38.03%,,> 20 µM,
Nc1ccn([C@@H]2CS[C@H](CO)O2)c(=O)n1 [LAMIVUDINE],> 1000,84.42%,< 0.1 µM,> 20 µM,CC50 at 72 h [11]: > 100 µM; IC50 (Hepatitis B virus [12]): > 100 µM
O=C(NCCn1cnc2cc(-c3noc(CCC4CCCC4)n3)ccc21)c1ccc(Cl)cc1,> 10.2,63.41%,1.96 µM,> 20 µM,
O=C(CCn1cnc2cc(-c3noc(CCC4CCCC4)n3)ccc21)N1CCOCC1,,0.02%,,> 20 µM,
Cc1ccccc1NC(=O)CCn1cnc2cc(-c3noc(CCC4CCCC4)n3)ccc21,,7.43%,,> 20 µM,
COc1ccccc1C(=O)NCCn1cnc2cc(-c3noc(CCC4CCCC4)n3)ccc21,> 12.9,76.09%,1.55 µM,> 20 µM,
O=C(CCn1cnc2cc(-c3noc(CCC4CCCCC4)n3)ccc21)N1CCCC1,,0.74%,,> 20 µM,
Cc1cccc(C(=O)NCCn2cnc3cc(-c4noc(CCC5CCCC5)n4)ccc32)c1,,9.58%,,> 20 µM,
O=C(NCCn1cnc2cc(-c3noc(CCC4CCCC4)n3)ccc21)c1ccc(I)cc1,> 7.6,54.76%,2.63 µM,> 20 µM,
O=C(NCCn1cnc2cc(-c3noc(CCC4CCCC4)n3)ccc21)c1cccc(Br)c1,> 6.02,64.39%,3.32 µM,> 20 µM,

SMILES,selectivity ratio [1],Activity (Hepatitis B virus [2]),IC50 (Hepatitis B virus [3]),CC50 at 72 h [4],other results
O=C(CCn1cnc2cc(-c3noc(CCC4CCCC4)n3)ccc21)NC1CCCC1,,21.36%,,> 20 µM,
COc1cccc(C(=O)NCCn2cnc3cc(-c4noc(CCC5CCCC5)n4)ccc32)c1,> 12.5,70.78%,1.6 µM,> 20 µM,
O=C(CCn1cnc2cc(-c3noc(CCC4CCCC4)n3)ccc21)N1CCCC1,> 3.69,48.57%,5.17 µM,> 20 µM,
O=C(CCn1cnc2cc(-c3noc(CCC4CCCC4)n3)ccc21)NC1CCCCC1,,2.64%,,> 20 µM,
O=C(NCCn1cnc2cc(-c3noc(CCC4CCCC4)n3)ccc21)c1ccccc1I,,30.88%,,> 20 µM,
COc1ccc(C(=O)NCCn2cnc3cc(-c4noc(CCC5CCCC5)n4)ccc32)cc1,> 7.58,73.8%,2.64 µM,> 20 µM,
O=C(NCCn1cnc2cc(-c3noc(CCC4CCCC4)n3)ccc21)c1ccccc1Br,> 12.4,53.47%,1.61 µM,> 20 µM,
O=C(CCn1cnc2cc(-c3noc(CCC4CCCC4)n3)ccc21)N1CCCCC1,> 3.17,53.4%,6.3 µM,> 20 µM,
O=C(NCCn1cnc2cc(-c3noc(CCC4CCCC4)n3)ccc21)c1cccc(I)c1,> 12,68.86%,1.67 µM,> 20 µM,
O=C(NCCn1cnc2cc(-c3noc(CCC4CCCC4)n3)ccc21)c1cccc(Cl)c1,> 23.5,82.78%,0.85 µM,> 20 µM,
O=C(NCCn1cnc2cc(-c3noc(CCC4CCCC4)n3)ccc21)c1ccc(C(F)(F)F)cc1,> 29,63.99%,0.69 µM,> 20 µM,selectivity ratio [8]: > 32.8; Ratio IC50 (Hepatitis B virus [10]): 150; CC50 at 72 h [11]: > 20 µM; IC50 (Hepatitis B virus [12]): 0.61 µM
O=C(NCCn1cnc2cc(-c3noc(CCC4CCCC4)n3)ccc21)c1ccccc1,,28.98%,,> 20 µM,
O=C(NCCn1cnc2cc(-c3noc(CCC4CCCC4)n3)ccc21)c1ccc(F)cc1,> 15,65.06%,1.33 µM,> 20 µM,
O=C(NCCn1cnc2cc(-c3noc(CCC4CCCC4)n3)ccc21)c1ccccc1Cl,,10.63%,,> 20 µM,
O=C(CCn1cnc2cc(-c3noc(CCc4ccccc4)n3)ccc21)N1CCCC1,,24.46%,,> 20 µM,

# Source: ChEMBL document CHEMBL5247587, “Discovery of benzimidazole substituted 1, 2, 4-oxadiazole compounds as novel anti-HBV agents with TLR8-agonistic activities” (Eur J Med Chem, 2022)
